Data set [1] deals with mouse melanoma-derived cells B-16. Kind of data set: Inhibitory activity against melanine synthesis. The format is cell-based. Conditions: for Inhibition Ratio (melanine synthesis) / Amount of Melanine: 4 days; for Amount of Melanine: mean ± SD of five flasks; for inhibitory activity against the melanine synthesis by melanocytes (in words): remarkable in concentrations of 0.0005 w/v% or more. The protocol:
3×10^4 cells of mouse melanoma-derived cells B-16 were inoculated in a plastic incubation flask (75 cm^3) and incubated in Eagle MEM medium containing 10% fetal bovine serum under the conditions of 5% CO2 and 37° C. Two days after the start of the incubation, the inulavosin obtained in Production Example 1 above, the acetylinulavosin obtained in Example 1, or the glucosylinulavosin obtained in Example 2 was added to the incubation flask so that its concentration in the medium became 5×10^−5 to 1×10^−3 (W/V%) as shown in Tables 1 to 3 below, and the incubation was continued for additional 4 days. After completion of the incubation, the medium was removed from the incubation flask and the flask was washed with equilibrium phosphate buffer solution (hereinafter referred as “PBS”). Thereafter, the cells adhered on the incubation flask were stripped off with a solution containing trypsin and EDTA and then the obtained mixture was centrifuged to collect the cells.
After washing the collected cells with PBS, 1N sodium hydroxide was added to the precipitate, and the mixture was heat-dissolved. After cooling, chloroform was added thereto and the mixture was stirred and centrifuged again. The resultant supernatant was measured for absorbance at 400 nm and the amount of melanine was obtained by a calibration curve prepared in advance using synthetic melanine. The amount of melanine was obtained as weight (μg) per 10^6 cells. In the experiments, five flasks were used for each concentration of the test samples.
Tables 1 to 3 show the results obtained as average values of five flasks together with standard deviations. Tables 1 to 3 show the results for inulavosin, acetylinulavosin, and glucosylinulavosin, respectively.
In addition, as a control, the amount of melanine was determined by conducting the same experiments as described above except that the compound represented by formula (I) was not added. From the amount of melanine in the absence of samples and the amount of melanine in the presence of a sample, there was obtained melanine synthesis inhibition ratio (R(%)) by the following equation. The amount of melanine in the equation was an average value obtained from five flasks.
R: Melanine synthesis inhibition ratio
A: Amount of melanine in the absence of samples
B: Amount of melanine in the presence of a sample

Another data set has as its system Staphylococcus aureus. Conditions: Heterocycles, Vol. 41, No. 9, 1923-1926 (1995); cited from earlier work.
Another data set concerns fish. Conditions: Heterocycles, Vol. 41, No. 9, 1923-1926 (1995); cited from earlier work.
The subject of a further data set is Pseudomonas aeruginosa. Conditions: Heterocycles, Vol. 41, No. 9, 1923-1926 (1995); cited from earlier work.

The structures appear in SMILES notation.

On to `CC(=O)Oc1cc(C)ccc1C1(C)CC(C)(C)c2ccc(C)cc2O1` (stereo not drawn) [Acetylinulavosin, 2′-acetoxy-2,4,4,7,4′-pentamethylflavan], for which the “Inhibition Ratio (melanine synthesis)” value in data set [1] (1 × 10^−3 W/V % in medium) came out at 87.9%; in data set [1] (1 × 10^−4 W/V % in medium), 25.1%; in data set [1] (5 × 10^−4 W/V % in medium), 62.2%; in data set [1] (5 × 10^−5 W/V % in medium), 9.3%. Further, the “Amount of Melanine” value stood at 0.39 ± 0.18 μg/10^6 cells in data set [1] (1 × 10^−3 W/V % in medium), 2.42 ± 0.26 μg/10^6 cells in data set [1] (1 × 10^−4 W/V % in medium), 1.22 ± 0.17 μg/10^6 cells in data set [1] (5 × 10^−4 W/V % in medium) and 2.93 ± 0.35 μg/10^6 cells in data set [1] (5 × 10^−5 W/V % in medium). The “inhibitory activity against the melanine synthesis by melanocytes (in words)” value (“inhibitory activity” for short) in data set [1] is “have inhibitory activity against the melanine synthesis by melanocytes”.
Regarding `Cc1ccc2c(c1)OC(C)(c1ccc(C)cc1OC1O[C@H](CO)[C@@H](O)[C@H](O)[C@H]1O)CC2(C)C` (stereo partly drawn) [Glucosylinulavosin, 2′-O-glucosyl-2,4,4,7,4′-pentamethylflavan], the “Inhibition Ratio (melanine synthesis)” value came to 80.8% in data set [1] (1 × 10^−3 W/V % in medium), 22.0% in data set [1] (1 × 10^−4 W/V % in medium), 58.2% in data set [1] (5 × 10^−4 W/V % in medium) and 6.5% in data set [1] (5 × 10^−5 W/V % in medium). Further, the “Amount of Melanine” value in data set [1] (1 × 10^−3 W/V % in medium) was 0.62 ± 0.15 μg/10^6 cells; in data set [1] (1 × 10^−4 W/V % in medium), 2.52 ± 0.23 μg/10^6 cells; in data set [1] (5 × 10^−4 W/V % in medium), 1.35 ± 0.17 μg/10^6 cells; in data set [1] (5 × 10^−5 W/V % in medium), 3.02 ± 0.33 μg/10^6 cells. In data set [1], the “inhibitory activity” value is recorded as “have inhibitory activity against the melanine synthesis by melanocytes”.
Turning to `Cc1ccc(C2(C)CC(C)(C)c3ccc(C)cc3O2)c(O)c1` (stereo not drawn) [Inulavosin, 2′-hydroxy-2,4,4,7,4′-pentamethylflavan], the antibacterial activity result in the data set on Staphylococcus aureus and with Pseudomonas aeruginosa was “antibacterial activity” throughout. Also, the fish toxin activity entry in the data set with fish is listed as “fish toxin activity”. Besides, the “Inhibition Ratio (melanine synthesis)” value in data set [1] (1 × 10^−3 W/V % in medium) was 91.3%; in data set [1] (1 × 10^−4 W/V % in medium), 31.0%; in data set [1] (5 × 10^−4 W/V % in medium), 73.1%; in data set [1] (5 × 10^−5 W/V % in medium), 15.2%. In addition, the “Amount of Melanine” value in data set [1] (1 × 10^−3 W/V % in medium) is recorded as 0.28 ± 0.17 μg/10^6 cells; in data set [1] (1 × 10^−4 W/V % in medium), 2.23 ± 0.24 μg/10^6 cells; in data set [1] (5 × 10^−4 W/V % in medium), 0.87 ± 0.21 μg/10^6 cells; in data set [1] (5 × 10^−5 W/V % in medium) it was 2.74 ± 0.32 μg/10^6 cells. Further, in data set [1], the “inhibitory activity” value was “have inhibitory activity against the melanine synthesis by melanocytes”.

Values taken from US6495524B1, “Benzo[b]pyran derivatives useful as external agents for the skin” (Pola Chemical Industries Inc., priority 1998, dated 2002).
